Results as given in ChEMBL document CHEMBL3885881, “DrugMatrix”.

Organism: Rattus norvegicus
Assay: DrugMatrix - Regimen: Daily Repeat
Type: toxicity, organism-based, Sprague-Dawley
Design: regimen Daily Repeat, gender Male, age 6-8 weeks
Settings: in vivo, po, route oral GAVAGE, vehicle 100 % WATER; for ABSOLUTE BASOPHIL / ABSOLUTE EOSINOPHIL / ABSOLUTE LYMPHOCYTE / ABSOLUTE MONOCYTE / ABSOLUTE SEGMENTED NEUTROPHIL / BASOPHIL / EOSINOPHIL / ERYTHROCYTE COUNT / HEMATOCRIT / HEMOGLOBIN / LEUKOCYTE COUNT / LYMPHOCYTE / MEAN CORPUSCULAR HEMOGLOBIN / MEAN CORPUSCULAR HEMOGLOBIN CONCENTRATION / MEAN CORPUSCULAR VOLUME / MONOCYTE / NEUTROPHIL / NUCLEATED RED BLOOD CELLS / PLATELET COUNT: tissue Blood; for ALANINE AMINOTRANSFERASE / ALBUMIN / ALKALINE PHOSPHATASE / ASPARTATE AMINOTRANSFERASE / BLOOD UREA NITROGEN / CARBON DIOXIDE / CHLORIDE / CHOLESTEROL / CREATINE PHOSPHOKINASE / CREATININE / GLUCOSE / LACTATE DEHYDROGENASE / LIPASE / PHOSPHORUS / POTASSIUM / SODIUM / TOTAL BILIRUBIN / TOTAL PROTEIN / URIC ACID: tissue Plasma
[1] = 0 mg/kg, 72 h, dose level Control, time 3 day
[2] = 0 mg/kg, 120 h, dose level Control, time 5 day
[3] = 60 mg/kg, 72 h, dose level Low, time 3 day
[4] = 60 mg/kg, 120 h, dose level Low, time 5 day

CC(CCc1ccccc1)NCC(O)c1ccc(O)c(C(N)=O)c1 (configuration not stated) [LABETALOL]
ABSOLUTE BASOPHIL [1]: 0 CELLS/uL
ABSOLUTE EOSINOPHIL [1]: 168.33 CELLS/uL
ABSOLUTE LYMPHOCYTE [1]: 13654.17 CELLS/uL
ABSOLUTE MONOCYTE [1]: 121 CELLS/uL
ABSOLUTE SEGMENTED NEUTROPHIL [1]: 1223.17 CELLS/uL
BASOPHIL [1]: 0%
EOSINOPHIL [1]: 1.17%
ERYTHROCYTE COUNT [1]: 5.7 x10E6/uL
HEMATOCRIT [1]: 35.33%
HEMOGLOBIN [1]: 13.97 G/DL
LEUKOCYTE COUNT [1]: 15.17 x10E3/uL
LYMPHOCYTE [1]: 89.83%
MEAN CORPUSCULAR HEMOGLOBIN [1]: 24.53 pg
MEAN CORPUSCULAR HEMOGLOBIN CONCENTRATION [1]: 39.53 G/DL
MEAN CORPUSCULAR VOLUME [1]: 62.05 fL
MONOCYTE [1]: 0.83%
NEUTROPHIL [1]: 8.17%
NUCLEATED RED BLOOD CELLS [1]: 0 /100WBC
PLATELET COUNT [1]: 1312.17 x10E3/uL
ALANINE AMINOTRANSFERASE [1]: 50.83 u/L
ALBUMIN [1]: 4.18 G/DL
ALKALINE PHOSPHATASE [1]: 334.17 u/L
ASPARTATE AMINOTRANSFERASE [1]: 82.17 u/L
BLOOD UREA NITROGEN [1]: 15.5 mg/dL
CARBON DIOXIDE [1]: 31.33 mmol/L
CHLORIDE [1]: 99.83 MEQ/L
CHOLESTEROL [1]: 76 mg/dL
CREATINE PHOSPHOKINASE [1]: 272.17 u/L
CREATININE [1]: 0.17 mg/dL
GLUCOSE [1]: 143 mg/dL
LACTATE DEHYDROGENASE [1]: 157.5 u/L
LIPASE [1]: 9.33 u/L
PHOSPHORUS [1]: 12.18 mg/dL
POTASSIUM [1]: 6.78 MEQ/L
SODIUM [1]: 143.9 MEQ/L
TOTAL BILIRUBIN [1]: 0.22 mg/dL
TOTAL PROTEIN [1]: 5.85 G/DL
URIC ACID [1]: 1.7 mg/dL
ABSOLUTE BASOPHIL [2]: 0 CELLS/uL
ABSOLUTE EOSINOPHIL [2]: 0 CELLS/uL
ABSOLUTE LYMPHOCYTE [2]: 13539.33 CELLS/uL
ABSOLUTE MONOCYTE [2]: 177.67 CELLS/uL
ABSOLUTE SEGMENTED NEUTROPHIL [2]: 2116.33 CELLS/uL
BASOPHIL [2]: 0%
EOSINOPHIL [2]: 0%
ERYTHROCYTE COUNT [2]: 5.78 x10E6/uL
HEMATOCRIT [2]: 36.13%
HEMOGLOBIN [2]: 14.1 G/DL
LEUKOCYTE COUNT [2]: 15.83 x10E3/uL
LYMPHOCYTE [2]: 85.83%
MEAN CORPUSCULAR HEMOGLOBIN [2]: 24.42 pg
MEAN CORPUSCULAR HEMOGLOBIN CONCENTRATION [2]: 39 G/DL
MEAN CORPUSCULAR VOLUME [2]: 62.55 fL
MONOCYTE [2]: 0.83%
NEUTROPHIL [2]: 13.33%
NUCLEATED RED BLOOD CELLS [2]: 0.17 /100WBC
PLATELET COUNT [2]: 1281.17 x10E3/uL
ALANINE AMINOTRANSFERASE [2]: 55.5 u/L
ALBUMIN [2]: 4.22 G/DL
ALKALINE PHOSPHATASE [2]: 345 u/L
ASPARTATE AMINOTRANSFERASE [2]: 92.5 u/L
BLOOD UREA NITROGEN [2]: 16.5 mg/dL
CARBON DIOXIDE [2]: 26.5 mmol/L
CHLORIDE [2]: 103.5 MEQ/L
CHOLESTEROL [2]: 78.5 mg/dL
CREATINE PHOSPHOKINASE [2]: 381.5 u/L
CREATININE [2]: 0.21 mg/dL
GLUCOSE [2]: 161.83 mg/dL
LACTATE DEHYDROGENASE [2]: 487.5 u/L
LIPASE [2]: 10.17 u/L
PHOSPHORUS [2]: 11.83 mg/dL
POTASSIUM [2]: 6.4 MEQ/L
SODIUM [2]: 146.95 MEQ/L
TOTAL BILIRUBIN [2]: 0.22 mg/dL
TOTAL PROTEIN [2]: 6.22 G/DL
URIC ACID [2]: 1.83 mg/dL
ABSOLUTE BASOPHIL [3]: 0 CELLS/uL
ABSOLUTE EOSINOPHIL [3]: 201.33 CELLS/uL
ABSOLUTE LYMPHOCYTE [3]: 14909.33 CELLS/uL
ABSOLUTE MONOCYTE [3]: 67 CELLS/uL
ABSOLUTE SEGMENTED NEUTROPHIL [3]: 1589 CELLS/uL
BASOPHIL [3]: 0%
EOSINOPHIL [3]: 1.33%
ERYTHROCYTE COUNT [3]: 5.26 x10E6/uL
HEMATOCRIT [3]: 33.47%
HEMOGLOBIN [3]: 13 G/DL
LEUKOCYTE COUNT [3]: 16.77 x10E3/uL
LYMPHOCYTE [3]: 89.33%
MEAN CORPUSCULAR HEMOGLOBIN [3]: 24.77 pg
MEAN CORPUSCULAR HEMOGLOBIN CONCENTRATION [3]: 38.9 G/DL
MEAN CORPUSCULAR VOLUME [3]: 63.63 fL
MONOCYTE [3]: 0.33%
NEUTROPHIL [3]: 9%
NUCLEATED RED BLOOD CELLS [3]: 0 /100WBC
PLATELET COUNT [3]: 1299.67 x10E3/uL
ALANINE AMINOTRANSFERASE [3]: 51.67 u/L
ALBUMIN [3]: 4.23 G/DL
ALKALINE PHOSPHATASE [3]: 301.67 u/L
ASPARTATE AMINOTRANSFERASE [3]: 83.67 u/L
BLOOD UREA NITROGEN [3]: 14.33 mg/dL
CARBON DIOXIDE [3]: 31.67 mmol/L
CHLORIDE [3]: 98.67 MEQ/L
CHOLESTEROL [3]: 81.33 mg/dL
CREATINE PHOSPHOKINASE [3]: 278 u/L
CREATININE [3]: 0.27 mg/dL
GLUCOSE [3]: 142.33 mg/dL
LACTATE DEHYDROGENASE [3]: 160 u/L
LIPASE [3]: 9.33 u/L
PHOSPHORUS [3]: 12.9 mg/dL
POTASSIUM [3]: 6.47 MEQ/L
SODIUM [3]: 145.3 MEQ/L
TOTAL BILIRUBIN [3]: 0.2 mg/dL
TOTAL PROTEIN [3]: 5.97 G/DL
URIC ACID [3]: 1.7 mg/dL
ABSOLUTE BASOPHIL [4]: 0 CELLS/uL
ABSOLUTE EOSINOPHIL [4]: 0 CELLS/uL
ABSOLUTE LYMPHOCYTE [4]: 14854.33 CELLS/uL
ABSOLUTE MONOCYTE [4]: 209.33 CELLS/uL
ABSOLUTE SEGMENTED NEUTROPHIL [4]: 1369.67 CELLS/uL
BASOPHIL [4]: 0%
EOSINOPHIL [4]: 0%
ERYTHROCYTE COUNT [4]: 5.65 x10E6/uL
HEMATOCRIT [4]: 34.93%
HEMOGLOBIN [4]: 13.63 G/DL
LEUKOCYTE COUNT [4]: 16.43 x10E3/uL
LYMPHOCYTE [4]: 90.33%
MEAN CORPUSCULAR HEMOGLOBIN [4]: 24.17 pg
MEAN CORPUSCULAR HEMOGLOBIN CONCENTRATION [4]: 39.03 G/DL
MEAN CORPUSCULAR VOLUME [4]: 61.87 fL
MONOCYTE [4]: 1.33%
NEUTROPHIL [4]: 8.33%
NUCLEATED RED BLOOD CELLS [4]: 0 /100WBC
PLATELET COUNT [4]: 1103 x10E3/uL
ALANINE AMINOTRANSFERASE [4]: 59 u/L
ALBUMIN [4]: 4.03 G/DL
ALKALINE PHOSPHATASE [4]: 331.33 u/L
ASPARTATE AMINOTRANSFERASE [4]: 90.67 u/L
BLOOD UREA NITROGEN [4]: 16.67 mg/dL
CARBON DIOXIDE [4]: 27.33 mmol/L
CHLORIDE [4]: 100.67 MEQ/L
CHOLESTEROL [4]: 96.67 mg/dL
CREATINE PHOSPHOKINASE [4]: 354.33 u/L
CREATININE [4]: 0.23 mg/dL
GLUCOSE [4]: 144 mg/dL
LACTATE DEHYDROGENASE [4]: 305.33 u/L
LIPASE [4]: 9.33 u/L
PHOSPHORUS [4]: 12.57 mg/dL
POTASSIUM [4]: 6.21 MEQ/L
SODIUM [4]: 143.47 MEQ/L
TOTAL BILIRUBIN [4]: 0.23 mg/dL
TOTAL PROTEIN [4]: 5.93 G/DL
URIC ACID [4]: 1.53 mg/dL
